Experiment [1] concerns TGF-β-stimulated SMAD3 phosphorylation in BEAS-2B cells. Briefly: Cellular ALK5 potency assay, inhibition of TGF-β stimulated pSMAD3 formation in BEAS-2B cells. The class given is cell-based. To be noted: Homo sapiens, pSMAD3, TGF-β 10 ng/mL, read-out: BEAS2B pIC50 (converted). In outline: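 Potency is expressed as pIC50, based on dose-dependent reduction of TGF-β-induced pSMAD3 AlphaLISA signal relative to stimulated cells without compound. BEAS-2B cells received compound 1 h before a 30 min, 10 ng/mL TGF-β challenge.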

In experiment [2] the target is T1, recombinant human ALK5 (TGF-βR1) protein (Homo sapiens, UniProt P36897).
T1 construct: purchased Life Technologies PR9075A
T1 sequence (P36897 34-503): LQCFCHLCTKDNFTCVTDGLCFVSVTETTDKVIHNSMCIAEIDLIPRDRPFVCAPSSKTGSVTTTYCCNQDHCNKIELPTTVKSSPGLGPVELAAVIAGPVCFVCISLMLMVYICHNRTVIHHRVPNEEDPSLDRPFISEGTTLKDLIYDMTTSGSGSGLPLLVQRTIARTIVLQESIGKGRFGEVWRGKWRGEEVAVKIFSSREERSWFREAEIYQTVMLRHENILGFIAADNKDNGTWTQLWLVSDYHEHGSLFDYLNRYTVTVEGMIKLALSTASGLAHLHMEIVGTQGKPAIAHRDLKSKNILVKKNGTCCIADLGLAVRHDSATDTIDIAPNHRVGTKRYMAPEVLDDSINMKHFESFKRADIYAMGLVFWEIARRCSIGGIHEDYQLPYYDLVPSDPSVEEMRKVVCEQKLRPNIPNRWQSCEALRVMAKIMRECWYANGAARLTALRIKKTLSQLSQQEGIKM
Kind of experiment: Biochemical ALK5 (TGF-βR1) assay to measure pKi (LANCE Ultra ULight kinase assay). To be noted: apparent pKi, converted from pIC50 by Cheng-Prusoff. In outline:
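Europium TR-FRET kinase assay: the enzyme is exposed to compound for 60 min at room temperature, and reaction with ATP runs 60 min at 37 °C. Percent inhibition relative to DMSO and SD-208 controls gives pIC50, which is converted to pKi.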
Background: TR-FRET usually uses a lanthanide donor and a delayed reading to cut background.

Some results are limits rather than exact numbers.

`Cc1cccc(-c2nccc(Nc3ccnc(Nc4ccc(N5CCC(NCC(C)C)CC5)cc4)n3)n2)n1` [Compound 194, N2-[4-[4-(isobutylamino)-1-piperidyl]phenyl]-N4-[2-(6-methyl-2-pyridyl)pyrimidin-4-yl]pyrimidine-2,4-diamine]: the IC50 in experiment [1] is 25.1 to 158 nM. In addition, the Ki in experiment [2] is 0.0398 to 0.316 nM.

In the case of `Cc1cccc(-c2nccc(Nc3ccnc(Nc4ccc(CN5CCC(C(=O)O[C@@H]6CCN(C)C6)C5)cc4)n3)n2)n1` (stereo partly drawn) [Compound 195, [(3R)-1-methylpyrrolidin-3-yl] 1-[[4-[[4-[[2-(6-methyl-2-pyridyl)pyrimidin-4-yl]amino]pyrimidin-2-yl]amino]phenyl]methyl] pyrrolidine-3-carboxylate], the IC50 in experiment [1] is 25.1 to 158 nM. The Ki in experiment [2] was 0.0398 to 0.316 nM.

For `Cc1cccc(-c2nccc(Nc3ccnc(Nc4ccc(N5CCCNCC5)cc4)n3)n2)n1` [Compound 196, N2-[4-(1,4-diazepan-1-yl)phenyl]-N4-[2-(6-methyl-2-pyridyl)pyrimidin-4-yl]pyrimidine-2,4-diamine], the IC50 in experiment [1] is 25.1 to 158 nM. Also, in experiment [2], the Ki was 0.0398 to 0.316 nM.

On to `Cc1cccc(-c2nccc(Nc3ccnc(Nc4ccc(CN5C6CCC5CNC6)cc4)n3)n2)n1` [Compound 197, N2-[4-(3,8-diazabicyclo[3.2.1]octan-8-ylmethyl)phenyl]-N4-[2-(6-methyl-2-pyridyl)pyrimidin-4-yl]pyrimidine-2,4-diamine], for which, in experiment [1], the IC50 is 25.1 to 158 nM. The Ki in experiment [2] was 0.0398 to 0.316 nM.

With `Cc1cccc(-c2nccc(Nc3ccnc(Nc4ccc5c(c4)CN(C(C)C)CC5)n3)n2)n1` [Compound 198, N2-(2-isopropyl-3,4-dihydro-1H-isoquinolin-7-yl)-N4-[2-(6-methyl-2-pyridyl)pyrimidin-4-yl]pyrimidine-2,4-diamine], the IC50 in experiment [1] was 25.1 to 158 nM. Moreover, in experiment [2], the Ki is 0.0398 to 0.316 nM.

For the compound `Cc1cccc(-c2nccc(Nc3ccnc(Nc4ccc(NC5CNC5)cc4)n3)n2)n1` [Compound 199, N2-[4-(azetidin-3-ylamino)phenyl]-N4-[2-(6-methyl-2-pyridyl)pyrimidin-4-yl]pyrimidine-2,4-diamine], in experiment [1], the IC50 is 25.1 to 158 nM. Besides, the Ki in experiment [2] is 0.0398 to 0.316 nM.

For `Cc1cccc(-c2nccc(Nc3ccnc(Nc4ccc(CN5CCN[C@@H](C(=O)O)C5)cc4)n3)n2)n1` [Compound 200, (2R)-4-[[4-[[4-[[2-(6-methyl-2-pyridyl)pyrimidin-4-yl]amino]pyrimidin-2-yl]amino]phenyl]methyl] piperazine-2-carboxylic acid], the IC50 in experiment [1] is 200 to 1260 nM. Besides, in experiment [2], the Ki is 0.0398 to 0.316 nM.

Consider `COC(=O)C1CN(Cc2ccc(Nc3nccc(Nc4ccnc(-c5cccc(C)n5)n4)n3)cc2)CCN1C` (stereo not shown) [Compound 201, methyl 1-methyl-4-[[4-[[4-[[2-(6-methyl-2-pyridyl)pyrimidin-4-yl]amino]pyrimidin-2-yl]amino]phenyl]methyl] piperazine-2-carboxylate], for which, in experiment [1], the IC50 is 25.1 to 158 nM. In experiment [2], the Ki is 0.398 to 3.16 nM.

As for `Cc1cccc(-c2nccc(Nc3ccnc(Nc4ccc(N(C)CC5CNC5)cc4)n3)n2)n1` [Compound 202, N2-(4-((azetidin-3-ylmethyl)(methyl)amino)phenyl)-N4-(2-(6-methylpyridin-2-yl)pyrimidin-4-yl)pyrimidine-2,4-diamine], in experiment [1], the IC50 was 25.1 to 158 nM. The Ki in experiment [2] is 0.0398 to 0.316 nM.

For `Cc1cccc(-c2nccc(Nc3ccnc(Nc4cccc(NC(=O)C5(O)CCNC5)c4)n3)n2)n1` (stereo not shown) [Compound 203, 3-hydroxy-N-[3-[[4-[[2-(6-methyl-2-pyridyl)pyrimidin-4-yl]amino]pyrimidin-2-yl]amino]phenyl]pyrrolidine-3-carboxamide], the IC50 in experiment [1] was no more than 20 nM. Moreover, the Ki in experiment [2] was 0.0398 to 0.316 nM.

Take `COC(=O)C1CNCCN1c1ccc(Nc2nccc(Nc3ccnc(-c4cccc(C)n4)n3)n2)cc1` (stereo not shown) [Compound 204, methyl 1-[4-[[4-[[2-(6-methyl-2-pyridyl)pyrimidin-4-yl]amino]pyrimidin-2-yl]amino]phenyl]piperazine-2-carboxylate]: the IC50 in experiment [1] was 25.1 to 158 nM. Further, the Ki in experiment [2] is 0.0398 to 0.316 nM.

Consider `Cc1cccc(-c2nccc(Nc3ccnc(Nc4ccc(N5CCNCC5)c(CC(=O)OCC(C)C)c4)n3)n2)n1` [Compound 205, isobutyl 2-[5-[[4-[[2-(6-methyl-2-pyridyl)pyrimidin-4-yl]amino]pyrimidin-2-yl]amino]-2-piperazin-1-yl-phenyl]acetate], for which the IC50 in experiment [1] is 25.1 to 158 nM. Besides, the Ki in experiment [2] is 0.0398 to 0.316 nM.

In the case of `Cc1cccc(-c2nccc(Nc3ccnc(Nc4csc(NC(=O)C5(CO)CNC5)c4)n3)n2)n1` [Compound 206, 3-(hydroxymethyl)-N-[4-[[4-[[2-(6-methyl-2-pyridyl)pyrimidin-4-yl]amino]pyrimidin-2-yl]amino]-2-thienyl]azetidine-3-carboxamide], in experiment [1], the IC50 was 200 to 1260 nM. Moreover, the Ki in experiment [2] is 0.0398 to 0.316 nM.

In the case of `Cc1cccc(-c2nccc(Nc3ccnc(Nc4cc(C(=O)OC5CNC5)cs4)n3)n2)n1` [Compound 207, azetidin-3-yl 5-[[4-[[2-(6-methyl-2-pyridyl)pyrimidin-4-yl]amino]pyrimidin-2-yl]amino]thiophene-3-carboxylate], in experiment [1], the IC50 was 25.1 to 158 nM. Besides, in experiment [2], the Ki is 0.0398 to 0.316 nM.

Take `Cc1cccc(-c2nccc(Nc3ccnc(Nc4ccc(S(=O)(=O)NCCN)cc4)n3)n2)n1` [Compound 208, N-(2-aminoethyl)-4-[[4-[[2-(6-methyl-2-pyridyl)pyrimidin-4-yl]amino]pyrimidin-2-yl]amino]benzenesulfonamide]: the IC50 in experiment [1] is no more than 20 nM. Also, in experiment [2], the Ki is no more than 0.0316 nM.

`Cc1cccc(-c2nccc(Nc3ccnc(Nc4ccc(NC(=O)C5(CO)CNC5)cc4)n3)n2)n1` [Compound 209, 3-(hydroxymethyl)-N-(4-((4-((2-(6-methylpyridin-2-yl)pyrimidin-4-yl)amino)pyrimidin-2-yl)amino)phenyl)azetidine-3-carboxamide]: in experiment [1], the IC50 is no more than 20 nM. For the same compound, the Ki in experiment [2] is 0.0398 to 0.316 nM.

With `Cc1cccc(-c2nccc(Nc3ccnc(Nc4ccc(CN5CCC[C@H](C(=O)O[C@H]6CCN(C)C6)C5)cc4)n3)n2)n1` [Compound 210, [(3S)-1-methylpyrrolidin-3-yl] (3S)-1-[[4-[[4-[[2-(6-methyl-2-pyridyl)pyrimidin-4-yl]amino]pyrimidin-2-yl]amino]phenyl]methyl] piperidine-3-carboxylate], the IC50 in experiment [1] is no more than 20 nM. In addition, the Ki in experiment [2] was 0.0398 to 0.316 nM.

As to `Cc1cccc(-c2nccc(Nc3ccnc(Nc4csc(NC(=O)C5CNC5)c4)n3)n2)n1` [Compound 211, N-[4-[[4-[[2-(6-methyl-2-pyridyl)pyrimidin-4-yl]amino]pyrimidin-2-yl]amino]-2-thienyl]azetidine-3-carboxamide], the IC50 in experiment [1] was 25.1 to 158 nM. Moreover, the Ki in experiment [2] is 0.0398 to 0.316 nM.

Take `Cc1cccc(-c2nccc(Nc3ccnc(Nc4ccc(S(=O)(=O)N5CCN(C(C)C)CC5)cc4)n3)n2)n1` [Compound 213, N2-[4-(4-isopropylpiperazin-1-yl)sulfonylphenyl]-N4-[2-(6-methyl-2-pyridyl)pyrimidin-4-yl]pyrimidine-2,4-diamine]: the IC50 in experiment [1] was 25.1 to 158 nM. For the same compound, in experiment [2], the Ki is 0.0398 to 0.316 nM.

`Cc1cccc(-c2nccc(Nc3ccnc(Nc4ccc(CN5CCCC(C(=O)NC6CNC6)C5)cc4)n3)n2)n1` (stereo not shown) [Compound 214, N-(azetidin-3-yl)-1-[[4-[[4-[[2-(6-methyl-2-pyridyl)pyrimidin-4-yl]amino]pyrimidin-2-yl]amino]phenyl]methyl] piperidine-3-carboxamide]: the IC50 in experiment [1] was 25.1 to 158 nM. In experiment [2], the Ki was 0.0398 to 0.316 nM.

Regarding `Cc1cccc(-c2nccc(Nc3ccnc(Nc4ccc(N5CCCC(C(=O)OC6CCNCC6)C5)cc4)n3)n2)n1` (stereo not shown) [Compound 215, 4-piperidyl 1-[4-[[4-[[2-(6-methyl-2-pyridyl)pyrimidin-4-yl]amino]pyrimidin-2-yl]amino]phenyl]piperidine-3-carboxylate], the IC50 in experiment [1] was 200 to 1260 nM. Further, the Ki in experiment [2] was 0.0398 to 0.316 nM.

With `Cc1cccc(-c2nccc(Nc3ccnc(Nc4csc(C(=O)O[C@H]5CCN(C)C5)c4)n3)n2)n1` [Compound 217, [(3S)-1-methylpyrrolidin-3-yl] 4-[[4-[[2-(6-methyl-2-pyridyl)pyrimidin-4-yl]amino]pyrimidin-2-yl]amino]thiophene-2-carboxylate], in experiment [1], the IC50 was 25.1 to 158 nM. Besides, the Ki in experiment [2] was 0.0398 to 0.316 nM.

As for `Cc1cccc(-c2nccc(Nc3ccnc(Nc4ccc(N5CCC(C(=O)OC6CCNCC6)CC5)cc4)n3)n2)n1` [Compound 218, 4-piperidyl 1-[4-[[4-[[2-(6-methyl-2-pyridyl)pyrimidin-4-yl]amino]pyrimidin-2-yl]amino]phenyl]piperidine-4-carboxylate], the IC50 in experiment [1] is 25.1 to 158 nM. For the same compound, in experiment [2], the Ki was 0.0398 to 0.316 nM.

These data come from patent US20230399312A1, “SUBSTITUTED PYRIMIDINES AND METHODS OF USE” (THERAVANCE BIOPHARMA R&D IP, LLC, priority 2020, published 2023).
